Drawing on US20220288014A1, “ORAL FORMULATIONS OF CANNABIS EXTRACTS AND METHODS OF MAKING SAME” (Neptune Wellness Solutions Inc., priority 2019, published 2022), this text covers peak plasma concentration for two compounds.

Data set [1] can be described thus: Example 2: rat pharmacokinetics of CBD and THC from cannabis extract (1:1 THC:CBD), IV bolus and oral gavage in MCT, TG-O3 or krill oil (PL-O3). Format: in vivo. The note with it: intravenous administration of cannabis extract in lipid-free solution, at 5 minutes (data not shown). An excerpt:
The study design and methods of analyses of the pre-clinical study were the same as disclosed in Example 1.
Values are expressed as mean±SEM.

Data set [2] is described as follows: Example 1: rat pharmacokinetics of CBD and THC from cannabis extract (1:1 THC:CBD), IV bolus and oral gavage in MCT, TG-O3 or MAG-O3 carrier oil. The note with it: intravenous administration of cannabis extract in lipid-free solution, at 5 minutes (data not shown).

Turning to `CCCCCc1cc(O)c2c(c1)OC(C)(C)[C@@H]1CCC(C)=C[C@@H]21` [THC, Δ^9tetrahydrocannabinol], the peak plasma concentration in data set [1] and in data set [2] was 864 ± 194 ng/mL in each case.

For `C=C(C)[C@@H]1CCC(C)=C[C@H]1c1c(O)cc(CCCCC)cc1O` [CBD, cannabidiol], the peak plasma concentration in data set [1] and in data set [2] was 1193 ± 290 ng/mL in each case.
